Source: US9050264B2, “Cellulose capsules and methods for making them” (University of Iowa Research Foundation, priority 2009, dated 2015)
Counter-ions that a name gives are not always drawn. One block for each compound: values may come before it.

Legend:
Type in all cases: physicochemical
[1] = Release of KCl from cellulose capsules in unstirred aqueous urea solutions (potassium ion selective electrode); details: cellulose capsule (shell 0.07-0.10 mm), KCl 500 mg, unstirred 200 mL, 37 C
Description: Cellulose capsule shells (shell thickness 0.07-0.10 mm), prepared according to Example 2, were filled with KCl (500 mg) and subjected to the release study in the unstirred dissolution medium (200 mL) containing 0.0, 1.5, 3.0, 5.5, or 8.0 M urea at 37±0.5° C. using a Hansen Research USP II basket apparatus (Hansen Research Corp., Chatsworth, Calif.). The amount of KCl released was analyzed using a potassium ion selective electrode connected to a pH meter (Orion model 420, Fisher Scientific, Inc., Pittsburgh, Pa.).

[2] = Dissolution study of acetaminophen release from cellulose capsules in water (USP II basket, HPLC); details: for release rate: acetaminophen 50 mg + lactose 150 mg, water 900 mL, 37 C, 100 r.p.m.
Description: Cellulose capsule shells of three different shell thicknesses (0.05, 0.06 and 0.07 mm) were prepared from the methylolcellulose solution (cellulose content 4.4%, w/w) according to Example 2. They were filled with a homogeneously mixed powder blend of acetaminophen (50 mg) and lactose (150 mg). The dissolution study was performed in water (900 mL) at 37±0.5° C. and 100±2 r.p.m. using a Hansen Research USP II basket apparatus (Hansen Research Corp., Chatsworth, Calif.). The amount of drug released was determined by high performance liquid chromatography (HPLC) using an absolute calibration method and a fully automated Shimadzu LC-6A high performance liquid chromatograph, equipped with a C18 analytical column (Supelco—Sigma Aldrich, Bellefonte, Pa.). The drug was eluted with a 1:3 methanol:water mixture at a flow rate of 0.5 mL/min and detected at a wavelength of 243 nm. The release of acetaminophen increased linearly with time (see FIG. 4A).
Cellulose capsule shells (shell thickness 0.07-0.10 mm) prepared according to Example 2 were filled with 50, 100 and 200 mg of acetaminophen. The release studies were carried out in purified water (900 mL) at 37±0.5° C. and 100±2 r.p.m. The amount of acetaminophen released over time was determined by HPLC using conditions described above.
Cellulose capsule shells (shell thickness 0.07-0.10 mm), prepared according to Example 2, were filled with a homogeneously mixed powder blend of acetaminophen (100 mg) and 15, 50, 100, 150, or 200 mg of polyethylene glycol (PEG) 8000 (corresponding to the percent weight ratio of 87:13, 67:33, 50:50, 40:60, or 33:67, respectively, for the total powder fill in the capsule). The release studies were performed in purified water (900 mL) at 37±0.5° C. and 100±2 r.p.m. using the Hansen Research USP II basket apparatus (Hansen Research Corp., Chatsworth, Calif.). The amount of acetaminophen released was determined by HPLC as described above. […] Above 60% w/w PEG 8000 in the formulation, there was no change in the release rate compared to the rate at 50% PEG in the mixture.
Cellulose capsule shells (shell thickness 0.07-0.1 mm) prepared according to Example 2 were filled with acetaminophen (100 mg) and 50, 100 and 200 mg potassium chloride (KCl) (corresponding to the weight ratio of 33:67, 50:50 or 67:33, respectively, for the total powder fill in the capsule). The amounts of acetaminophen released at different times were determined by HPLC, following the procedure described above.

[3] = Dissolution study of cellulose:Eudragit S100 capsule shells in pH 3.0 and pH 7.4 buffers (USP II basket, HPLC); details: Cellulose:Eudragit (90:10%, w/w) capsule shell ~0.08 mm, acetaminophen 50 mg + anhydrous lactose 150 mg
Description: Cellulose:Eudragit (90:10%, w/w) capsule shells (shell thickness˜0.08 mm) prepared according to Example 2 were filled with a homogeneously mixed powder blend of acetaminophen (50 mg) and anhydrous lactose (150 mg) and subjected to dissolution study first in pH 3.0 phthalate buffer (900 mL) for 3 h at 37±0.5° C. and 100±2 r.p.m followed by in pH 7.4 phosphate buffer (900 mL) for 5 h at 37±0.5° C. and 100±2 r.p.m. using a Hansen Research USP II basket apparatus (Hansen Research Corp., Chatsworth, Calif.). The amount of drug released was determined by HPLC according to the method described above. […] The higher steady-state release rate observed for acetaminophen at pH 7.4 is attributed to the dissolution of Eudragit, causing the capsule shell to become more porous.
Cellulose, cellulose-Eudragit (90:10) and cellulose:Eudragit (90:10%, w/w) capsule shells (shell thickness˜0.08 mm) were prepared according to Example 2. The dissolution test was carried out in pH 7.4 phosphate buffer (900 mL) for 5 h at 37±0.5° C. and 100±2 r.p.m. using a Hansen Research USP II basket apparatus (Hansen Research Corp., Chatsworth, Calif.). The amount of drug released was determined by HPLC according to the method described above. FIG. 12 compares the release results from the three capsule systems. The steady-state release rates calculated were 1.8, 3.1 and 4.6 mg/h, respectively.

[4] = Release of diphenhydramine hydrochloride from cellulose capsules in water (USP II basket, HPLC); details: cellulose capsule, water 900 mL
Description: Cellulose capsule shells (shell thickness 0.07-1.0 mm), prepared according to Example 2, were filled with diphenhydramine hydrochloride and lactose (400 mg) mixed in different weight-by-weight ratios (50:50, 25:75, 12.5:87.5, 6.25:93.75 or 3.75:96.25 weight ratios of diphenhydramine hydrochloride and lactose, respectively). The release study was performed in water (900 mL) at 37±0.5° C. and 100±2 r.p.m. using a Hansen Research USP II basket apparatus (Hansen Research Corp., Chatsworth, Calif.). The amount of drug released was determined by HPLC using a fully automated Shimadzu LC-10A high performance liquid chromatograph, equipped with a C18 analytical column (Supelco). The drug was eluted with a 1:4 (v/v) mixture of methanol:water (containing 1% triethylamine and 2% glacial acetic acid) at a flow rate of 0.2 mL/min and detected at a wavelength of 256 nm. […] The steady state release rates mentioned above depended linearly with the calculated osmotic pressure developed inside the capsule shell.

SMILES: [Cl-].[K+] [KCl, potassium chloride]
steady state release rate ([1]; 0.0 M urea): 142.8 mg/h
steady state release rate ([1]; 1.5 M urea): 115.8 mg/h
steady state release rate ([1]; 3.0 M urea): 100.2 mg/h
steady state release rate ([1]; 5.5 M urea): 73.8 mg/h
steady state release rate ([1]; 8.0 M urea): 46.2 mg/h

steady-state release rate ([2]; cellulose capsule (shell 0.07-0.10 mm) filled with 50 mg acetaminophen, purified water): 3.05 mg/h
steady-state release rate ([2]; cellulose capsule (shell 0.07-0.10 mm) filled with 100 mg acetaminophen, purified water): 3.43 mg/h
steady-state release rate ([2]; cellulose capsule (shell 0.07-0.10 mm) filled with 200 mg acetaminophen, purified water): 3.15 mg/h
steady-state release rate ([2]; cellulose capsule (shell 0.07-0.10 mm), 33:67 (% w/w) acetaminophen:PEG 8000 (100 mg + 200 mg), purified water): 7.38 mg/h
steady-state release rate ([2]; cellulose capsule (shell 0.07-0.1 mm), 33:67 acetaminophen:KCl mixture): 9.94 mg/h
steady-state release rate ([2]; cellulose capsule (shell 0.07-0.10 mm), 40:60 (% w/w) acetaminophen:PEG 8000 (100 mg + 150 mg), purified water): 7.17 mg/h
steady-state release rate ([2]; cellulose capsule (shell 0.07-0.10 mm), 50:50 (% w/w) acetaminophen:PEG 8000 (100 mg + 100 mg), purified water): 6.95 mg/h
steady-state release rate ([2]; cellulose capsule (shell 0.07-0.1 mm), 50:50 acetaminophen:KCl mixture): 10.14 mg/h
steady-state release rate ([2]; cellulose capsule (shell 0.07-0.10 mm), 67:33 (% w/w) acetaminophen:PEG 8000 (100 mg + 50 mg), purified water): 6.62 mg/h
steady-state release rate ([2]; cellulose capsule (shell 0.07-0.1 mm), 67:33 acetaminophen:KCl mixture): 11.41 mg/h
steady-state release rate ([2]; cellulose capsule (shell 0.07-0.10 mm), 87:13 (% w/w) acetaminophen:PEG 8000 (100 mg + 15 mg), purified water): 5.92 mg/h
release rate ([2]; cellulose capsule shell thickness 0.05 mm): 5.25 mg/h
release rate ([2]; cellulose capsule shell thickness 0.06 mm): 4.30 mg/h
release rate ([2]; cellulose capsule shell thickness 0.07 mm): 3.06 mg/h
steady-state release rate ([3]; pH 3.0 phthalate buffer, 3 h): 2.68 mg/h
steady-state release rate ([3]; pH 7.4 phosphate buffer, 5 h): 4.76 mg/h
SMILES: CC(=O)Nc1ccc(O)cc1 [acetaminophen]

steady-state release rate ([4]; 3.75:96.25 diphenhydramine hydrochloride:lactose core powder mixture (400 mg)): 3.92 mg/h
steady-state release rate ([4]; 6.25:93.75 diphenhydramine hydrochloride:lactose core powder mixture (400 mg)): 7.58 mg/h
steady-state release rate ([4]; 12.5:87.5 diphenhydramine hydrochloride:lactose core powder mixture (400 mg)): 12.70 mg/h
steady-state release rate ([4]; 25:75 diphenhydramine hydrochloride:lactose core powder mixture (400 mg)): 34.17 mg/h
steady-state release rate ([4]; 50:50 diphenhydramine hydrochloride:lactose core powder mixture (400 mg)): 67.96 mg/h
SMILES: CN(C)CCOC(c1ccccc1)c1ccccc1 [diphenhydramine hydrochloride]
